Assays:
D(1B) dopamine receptor = D(1B) dopamine receptor (Homo sapiens, UniProt P21918)
[1] = target: Delta-type opioid receptor (Homo sapiens, UniProt P41143)
[2] = target: 5-hydroxytryptamine receptor 2A (Homo sapiens, UniProt P28223)
D(1A) dopamine receptor = D(1A) dopamine receptor (Homo sapiens, UniProt P21728)
Histamine H2 receptor = Histamine H2 receptor (Homo sapiens, UniProt P25021)
D(3) dopamine receptor = D(3) dopamine receptor (Rattus norvegicus, UniProt P19020)
[3] = target: Gamma-aminobutyric acid receptor subunit alpha-1 (Rattus norvegicus, UniProt P62813)
Histamine H4 receptor = Histamine H4 receptor (Homo sapiens, UniProt Q9H3N8)
Histamine H3 receptor = Histamine H3 receptor (Cavia porcellus, UniProt Q9JI35)
[4] = target: Alpha-2A adrenergic receptor (Homo sapiens, UniProt P08913)
[5] = target: 5-hydroxytryptamine receptor 2C (Rattus norvegicus, UniProt P08909)
Mu-type opioid receptor = Mu-type opioid receptor (Homo sapiens, UniProt P35372)
[6] = target: 5-hydroxytryptamine receptor 5A (Homo sapiens, UniProt P47898)
[7] = target: Muscarinic acetylcholine receptor M2 (Homo sapiens, UniProt P08172)
[8] = target: 5-hydroxytryptamine receptor 6 (Homo sapiens, UniProt P50406)
[9] = target: Beta-1 adrenergic receptor (Rattus norvegicus, UniProt P18090)
[10] = target: Kappa-type opioid receptor (Homo sapiens, UniProt P41145)
[11] = target: Beta-2 adrenergic receptor (Rattus norvegicus, UniProt P10608)
[12] = target: Alpha-2C adrenergic receptor (Homo sapiens, UniProt P18825)
[13] = target: Alpha-2B adrenergic receptor (Homo sapiens, UniProt P18089)
Histamine H1 receptor = Histamine H1 receptor (Homo sapiens, UniProt P35367)
[14] = target: 5-hydroxytryptamine receptor 1E (Homo sapiens, UniProt P28566)
[15] = target: Muscarinic acetylcholine receptor M5 (Homo sapiens, UniProt P08912)
D(2) dopamine receptor = D(2) dopamine receptor (Homo sapiens, UniProt P14416)

Sequence of 5-hydroxytryptamine receptor 2C (P08909 whole entry): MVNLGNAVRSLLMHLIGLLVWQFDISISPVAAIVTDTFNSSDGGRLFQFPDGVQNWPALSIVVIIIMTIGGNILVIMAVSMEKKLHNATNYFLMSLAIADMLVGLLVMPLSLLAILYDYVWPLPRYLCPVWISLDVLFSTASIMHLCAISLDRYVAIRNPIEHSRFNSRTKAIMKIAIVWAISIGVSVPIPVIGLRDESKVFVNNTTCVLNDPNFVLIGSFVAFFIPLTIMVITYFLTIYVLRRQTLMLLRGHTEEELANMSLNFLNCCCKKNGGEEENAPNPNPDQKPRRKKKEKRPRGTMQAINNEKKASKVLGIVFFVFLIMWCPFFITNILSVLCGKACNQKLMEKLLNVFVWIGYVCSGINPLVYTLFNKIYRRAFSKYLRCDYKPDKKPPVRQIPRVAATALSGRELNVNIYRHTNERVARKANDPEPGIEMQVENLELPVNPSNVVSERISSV
Sequence of Mu-type opioid receptor (P35372 whole entry): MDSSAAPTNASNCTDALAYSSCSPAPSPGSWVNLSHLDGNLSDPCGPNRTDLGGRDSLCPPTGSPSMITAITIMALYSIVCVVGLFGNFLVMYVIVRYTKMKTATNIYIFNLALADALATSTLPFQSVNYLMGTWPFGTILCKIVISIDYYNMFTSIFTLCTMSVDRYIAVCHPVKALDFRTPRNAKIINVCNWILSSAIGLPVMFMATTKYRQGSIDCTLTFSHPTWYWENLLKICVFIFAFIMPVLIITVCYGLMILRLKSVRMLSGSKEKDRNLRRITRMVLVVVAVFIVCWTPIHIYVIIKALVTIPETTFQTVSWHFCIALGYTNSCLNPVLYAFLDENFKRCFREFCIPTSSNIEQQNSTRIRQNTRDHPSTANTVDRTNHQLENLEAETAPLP
Sequence of Alpha-2A adrenergic receptor (P08913 whole entry): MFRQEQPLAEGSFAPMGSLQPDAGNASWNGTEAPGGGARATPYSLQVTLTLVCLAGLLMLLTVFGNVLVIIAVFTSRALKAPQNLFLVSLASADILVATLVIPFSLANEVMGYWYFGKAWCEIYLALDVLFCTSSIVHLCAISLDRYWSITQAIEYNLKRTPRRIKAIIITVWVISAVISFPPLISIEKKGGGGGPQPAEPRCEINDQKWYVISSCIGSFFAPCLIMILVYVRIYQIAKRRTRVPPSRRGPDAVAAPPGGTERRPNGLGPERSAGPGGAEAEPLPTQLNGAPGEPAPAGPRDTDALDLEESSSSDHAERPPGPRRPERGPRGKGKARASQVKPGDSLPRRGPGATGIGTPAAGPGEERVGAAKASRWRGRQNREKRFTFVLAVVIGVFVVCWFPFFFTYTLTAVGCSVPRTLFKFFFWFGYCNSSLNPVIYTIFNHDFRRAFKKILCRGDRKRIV
Sequence of Beta-2 adrenergic receptor (P10608 whole entry): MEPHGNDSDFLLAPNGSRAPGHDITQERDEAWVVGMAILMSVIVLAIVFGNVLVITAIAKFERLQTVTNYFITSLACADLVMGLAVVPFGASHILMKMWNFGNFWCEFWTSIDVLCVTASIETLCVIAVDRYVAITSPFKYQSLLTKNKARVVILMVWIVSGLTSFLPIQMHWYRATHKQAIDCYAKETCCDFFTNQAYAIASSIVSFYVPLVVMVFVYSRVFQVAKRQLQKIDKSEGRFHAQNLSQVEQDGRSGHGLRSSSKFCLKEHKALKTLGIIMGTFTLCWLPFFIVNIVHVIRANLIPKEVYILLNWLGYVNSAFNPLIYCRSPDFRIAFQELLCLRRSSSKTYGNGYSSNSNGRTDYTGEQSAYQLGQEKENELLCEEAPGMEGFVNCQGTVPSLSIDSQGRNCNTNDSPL
Sequence of Alpha-2C adrenergic receptor (P18825 whole entry): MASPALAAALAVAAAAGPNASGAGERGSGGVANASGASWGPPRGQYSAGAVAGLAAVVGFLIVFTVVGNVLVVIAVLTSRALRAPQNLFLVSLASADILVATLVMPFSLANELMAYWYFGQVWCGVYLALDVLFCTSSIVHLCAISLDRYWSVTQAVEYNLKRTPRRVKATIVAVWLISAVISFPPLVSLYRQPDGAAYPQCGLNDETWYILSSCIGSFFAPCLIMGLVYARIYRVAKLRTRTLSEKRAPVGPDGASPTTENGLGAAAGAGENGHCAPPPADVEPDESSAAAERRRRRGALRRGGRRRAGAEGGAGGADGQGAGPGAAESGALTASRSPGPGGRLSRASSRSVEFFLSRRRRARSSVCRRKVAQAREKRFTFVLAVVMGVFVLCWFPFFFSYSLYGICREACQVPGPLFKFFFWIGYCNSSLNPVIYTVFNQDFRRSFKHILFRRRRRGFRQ
Sequence of Histamine H4 receptor (Q9H3N8 whole entry): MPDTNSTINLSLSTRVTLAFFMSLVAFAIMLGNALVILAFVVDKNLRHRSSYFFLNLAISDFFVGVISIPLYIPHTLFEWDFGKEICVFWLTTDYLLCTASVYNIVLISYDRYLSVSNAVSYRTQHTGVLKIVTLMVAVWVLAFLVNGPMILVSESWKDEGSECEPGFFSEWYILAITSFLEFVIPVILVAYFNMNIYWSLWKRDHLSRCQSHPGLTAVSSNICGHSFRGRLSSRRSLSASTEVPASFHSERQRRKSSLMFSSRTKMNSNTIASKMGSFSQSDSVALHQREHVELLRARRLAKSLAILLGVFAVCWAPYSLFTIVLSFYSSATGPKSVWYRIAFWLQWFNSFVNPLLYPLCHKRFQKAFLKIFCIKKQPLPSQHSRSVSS
Sequence of 5-hydroxytryptamine receptor 5A (P47898 whole entry): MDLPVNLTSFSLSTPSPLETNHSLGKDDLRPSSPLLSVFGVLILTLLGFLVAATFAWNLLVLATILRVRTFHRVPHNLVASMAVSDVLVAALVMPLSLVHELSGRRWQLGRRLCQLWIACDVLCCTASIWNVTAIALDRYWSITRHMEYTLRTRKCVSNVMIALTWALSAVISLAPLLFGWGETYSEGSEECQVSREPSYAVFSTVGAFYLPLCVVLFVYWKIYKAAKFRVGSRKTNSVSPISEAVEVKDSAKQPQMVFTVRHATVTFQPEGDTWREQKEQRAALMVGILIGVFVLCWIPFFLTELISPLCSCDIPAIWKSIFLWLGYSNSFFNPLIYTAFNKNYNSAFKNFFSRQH
Sequence of D(1A) dopamine receptor (P21728 whole entry): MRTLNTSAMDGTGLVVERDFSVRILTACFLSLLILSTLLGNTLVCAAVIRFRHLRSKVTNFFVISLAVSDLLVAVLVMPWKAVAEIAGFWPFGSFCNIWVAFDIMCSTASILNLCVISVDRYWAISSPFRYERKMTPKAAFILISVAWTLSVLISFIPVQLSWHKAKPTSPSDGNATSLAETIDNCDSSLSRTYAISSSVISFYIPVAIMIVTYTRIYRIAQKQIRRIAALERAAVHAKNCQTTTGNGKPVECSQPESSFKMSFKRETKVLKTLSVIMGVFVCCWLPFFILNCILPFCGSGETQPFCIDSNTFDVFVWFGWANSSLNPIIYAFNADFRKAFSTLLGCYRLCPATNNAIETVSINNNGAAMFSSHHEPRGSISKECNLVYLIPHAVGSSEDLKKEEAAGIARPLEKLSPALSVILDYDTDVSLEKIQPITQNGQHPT
Sequence of Alpha-2B adrenergic receptor (P18089 whole entry): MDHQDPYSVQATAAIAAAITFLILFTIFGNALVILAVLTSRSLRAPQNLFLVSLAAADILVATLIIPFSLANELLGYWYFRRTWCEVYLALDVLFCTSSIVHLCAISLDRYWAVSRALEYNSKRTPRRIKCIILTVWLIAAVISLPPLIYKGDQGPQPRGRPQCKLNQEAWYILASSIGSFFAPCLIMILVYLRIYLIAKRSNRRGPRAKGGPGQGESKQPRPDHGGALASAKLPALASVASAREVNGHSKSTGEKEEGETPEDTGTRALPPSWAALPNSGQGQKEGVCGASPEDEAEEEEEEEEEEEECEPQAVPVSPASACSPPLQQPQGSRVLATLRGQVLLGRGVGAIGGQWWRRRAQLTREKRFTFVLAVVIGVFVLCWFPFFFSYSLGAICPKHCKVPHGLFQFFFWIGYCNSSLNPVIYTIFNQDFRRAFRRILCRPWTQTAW
Sequence of Histamine H1 receptor (P35367 whole entry): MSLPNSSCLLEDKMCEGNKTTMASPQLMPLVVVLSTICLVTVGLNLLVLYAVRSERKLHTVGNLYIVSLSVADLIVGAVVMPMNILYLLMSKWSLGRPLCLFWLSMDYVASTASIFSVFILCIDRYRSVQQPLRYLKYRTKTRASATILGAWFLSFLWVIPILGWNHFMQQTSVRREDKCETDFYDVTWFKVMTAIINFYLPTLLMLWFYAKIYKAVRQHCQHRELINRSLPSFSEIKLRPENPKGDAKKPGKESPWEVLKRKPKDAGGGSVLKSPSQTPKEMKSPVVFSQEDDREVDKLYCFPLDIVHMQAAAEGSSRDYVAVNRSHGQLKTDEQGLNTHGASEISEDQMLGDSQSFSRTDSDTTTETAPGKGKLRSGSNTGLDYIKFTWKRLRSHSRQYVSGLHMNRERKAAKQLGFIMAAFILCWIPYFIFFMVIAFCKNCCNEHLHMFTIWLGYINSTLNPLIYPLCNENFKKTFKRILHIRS
Sequence of Muscarinic acetylcholine receptor M5 (P08912 whole entry): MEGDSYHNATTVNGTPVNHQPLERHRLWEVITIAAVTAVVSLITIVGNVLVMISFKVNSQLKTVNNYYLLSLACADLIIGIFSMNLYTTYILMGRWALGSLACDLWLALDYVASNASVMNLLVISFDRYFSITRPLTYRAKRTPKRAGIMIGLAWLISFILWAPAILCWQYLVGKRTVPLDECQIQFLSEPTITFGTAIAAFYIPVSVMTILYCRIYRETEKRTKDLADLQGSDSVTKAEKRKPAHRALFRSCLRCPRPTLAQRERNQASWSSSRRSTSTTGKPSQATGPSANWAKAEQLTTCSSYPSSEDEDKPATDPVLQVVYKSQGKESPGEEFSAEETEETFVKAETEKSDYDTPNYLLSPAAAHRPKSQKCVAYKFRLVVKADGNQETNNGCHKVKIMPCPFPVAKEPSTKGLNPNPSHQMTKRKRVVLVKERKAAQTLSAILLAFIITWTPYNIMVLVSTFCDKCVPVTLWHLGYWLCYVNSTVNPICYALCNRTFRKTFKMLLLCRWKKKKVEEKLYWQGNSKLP

In the case of `COc1ccccc1N1CCN(CCN(C(=O)C2CCCCC2)c2ccccn2)CC1`, the Ki (D(1B) dopamine receptor) is reported as > 10 µM, the Ki [1] is reported as > 10 µM and the Ki [2] is reported as 6.26 µM. For the same compound, the Ki (D(1A) dopamine receptor) was > 10 µM, the Ki (Histamine H2 receptor) was > 10 µM and the Ki (D(3) dopamine receptor) was 0.37 µM. For the same compound, the Ki [3] was > 10 µM, the Ki (Histamine H4 receptor) was > 10 µM and the Ki (Histamine H3 receptor) was > 10 µM. The Ki [4] was > 10 µM, the Ki [5] was > 10 µM and the Ki (Mu-type opioid receptor) was > 10 µM. The Ki [6] was > 10 µM, the Ki [7] was > 10 µM and the Ki [8] was > 10 µM. The Ki [9] was > 10 µM, the Ki [10] was 0.412 µM and the Ki [11] was > 10 µM. The Ki [12] was 2.57 µM, the Ki [13] was > 10 µM and the Ki (Histamine H1 receptor) was > 10 µM. The Ki [14] was > 10 µM, the Ki [15] was > 10 µM and the Ki (D(2) dopamine receptor) was 0.94 µM.

— BindingDB's records for doi:10.1007/s00213-006-0490-4 (Purdue University, 2006)
